Tests used:
saphenous artery rings = assay: Vasorelaxant effect in vitro (phenylephrine-contracted artery rings); assay type: cell-based, Rabbits; conditions: Oryctolagus cuniculus; rabbit saphenous artery rings, contraction induced by phenylephrine
Procedure: Rabbits are anesthetized and sacrificed by intravenous injection of thiopental sodium (about 50 mg/kg) and exsanguinated. The saphenous artery is removed and divided into rings 3 mm wide. The rings are mounted singly on in each case a pair of triangular hooks open at the end and made of 0.3 mm-thick special wire (Remanium®). Each ring is placed under an initial tension in 5 ml organ baths with Krebs-Henseleit solution which is at 37° C., is gassed with 95% O2/5% CO2 and has the following composition: NaCl 119 mM; KCl 4.8 mM; CaCl2×2H2O 1 mM; MgSO4×7H2O 1.4 mM; KH2PO4 1.2 mM; NaHCO3 25 mM; glucose 10 mM; bovine serum albumin 0.001%. The force of contraction is detected with Statham UC2 cells, amplified and digitized via A/D converters (DAS-1802 HC, Keithley Instruments, Munich) and recorded in parallel on chart recorders. Contractions are induced by addition of phenylephrine.
After several (generally 4) control cycles, the substance to be investigated is added in each further run in increasing dosage, and the height of the contraction achieved under the influence of the test substance is compared with the height of the contraction reached in the last preceding run. The concentration necessary to reduce the contraction reached in the preceding control by 50% is calculated from this (IC50). The standard application volume is 5 μl. […]

[1] = target: T1, Heme-containing sGC (recombinant soluble guanylate cyclase) (Rattus norvegicus, UniProt P20595); assay: Stimulation of recombinant soluble guanylate cyclase (sGC) in vitro, heme-containing enzyme; assay type: biochemical
T1 construct: made in house
T1 sequence (P20595 1-619): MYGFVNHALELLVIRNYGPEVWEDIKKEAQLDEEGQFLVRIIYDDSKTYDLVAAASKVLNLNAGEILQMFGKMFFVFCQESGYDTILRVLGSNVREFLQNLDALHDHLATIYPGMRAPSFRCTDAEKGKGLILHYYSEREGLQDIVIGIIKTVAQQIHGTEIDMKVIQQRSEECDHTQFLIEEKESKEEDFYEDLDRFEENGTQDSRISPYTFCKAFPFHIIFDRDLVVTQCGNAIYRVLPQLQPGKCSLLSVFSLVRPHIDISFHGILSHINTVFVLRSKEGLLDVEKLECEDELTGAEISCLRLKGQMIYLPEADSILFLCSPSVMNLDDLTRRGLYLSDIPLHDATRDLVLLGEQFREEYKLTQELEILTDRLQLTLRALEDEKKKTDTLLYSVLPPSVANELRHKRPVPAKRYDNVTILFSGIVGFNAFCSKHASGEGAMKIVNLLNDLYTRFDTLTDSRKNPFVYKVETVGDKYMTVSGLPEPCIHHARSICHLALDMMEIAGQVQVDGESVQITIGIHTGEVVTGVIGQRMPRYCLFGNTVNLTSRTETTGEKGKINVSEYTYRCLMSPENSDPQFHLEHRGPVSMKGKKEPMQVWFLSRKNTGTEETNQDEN
T1 sequence (P19686 1-690 partner): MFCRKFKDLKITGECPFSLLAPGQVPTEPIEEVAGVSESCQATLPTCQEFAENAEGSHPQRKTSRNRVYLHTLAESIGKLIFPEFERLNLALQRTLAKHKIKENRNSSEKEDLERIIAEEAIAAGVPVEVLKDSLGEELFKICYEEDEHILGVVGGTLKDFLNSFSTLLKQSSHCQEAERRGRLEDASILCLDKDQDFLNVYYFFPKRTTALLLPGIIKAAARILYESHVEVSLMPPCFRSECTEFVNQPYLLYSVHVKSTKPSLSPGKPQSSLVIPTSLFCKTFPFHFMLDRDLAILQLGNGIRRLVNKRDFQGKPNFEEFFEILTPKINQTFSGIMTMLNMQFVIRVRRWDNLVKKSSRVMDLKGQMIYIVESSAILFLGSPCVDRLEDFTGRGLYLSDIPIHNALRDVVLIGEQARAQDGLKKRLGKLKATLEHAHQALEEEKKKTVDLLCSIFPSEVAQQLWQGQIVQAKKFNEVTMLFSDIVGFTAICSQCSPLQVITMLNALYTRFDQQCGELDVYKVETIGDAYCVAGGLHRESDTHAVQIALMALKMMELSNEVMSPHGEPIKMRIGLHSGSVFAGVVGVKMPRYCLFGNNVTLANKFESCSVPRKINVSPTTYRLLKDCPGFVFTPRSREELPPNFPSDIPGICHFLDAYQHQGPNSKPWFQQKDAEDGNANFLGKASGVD
Source text: Hoenicka, E. M. Becker, H. Apeler, T. Sirichoke, H. Schroeder, R. Gerzer and J.-P. Stasch, “Purified soluble guanylyl cyclase expressed in a baculovirus/Sf9 system: Stimulation by YC-1, nitric oxide, and carbon oxide”, J. Mol. Med. 77 (1999), 14-23. The heme-free guanylate cyclase is obtained by adding Tween 20 to the sample buffer (0.5% in the final concentration).
(§1) The activation of sGC by a test substance is reported as n-fold stimulation of the basal activity.

[2] = target: T2, Heme-free sGC (recombinant soluble guanylate cyclase) (Rattus norvegicus, UniProt P20595); assay: Stimulation of recombinant soluble guanylate cyclase (sGC) in vitro, heme-free enzyme; assay type: biochemical
T2 construct: made in house
T2 sequence (P20595 1-619): T1 sequence (P20595 1-619)
T2 sequence (P19686 1-690 partner): T1 sequence (P19686 1-690 partner)
Procedure: Investigations on the stimulation of recombinant soluble guanylate cyclase (sGC) by the compounds according to the invention with and without sodium nitroprusside, and with and without the heme-dependent sGC inhibitor 1H-1,2,4-oxadiazole-(4,3a)-quinoxalin-1-one (ODQ) are carried out by the method described in detail in the following reference: M. Hoenicka, E. M. Becker, H. Apeler, T. Sirichoke, H. Schroeder, R. Gerzer and J.-P. Stasch, “Purified soluble guanylyl cyclase expressed in a baculovirus/Sf9 system: Stimulation by YC-1, nitric oxide, and […]”, J. Mol. Med. 77 (1999), 14-23. The heme-free guanylate cyclase is obtained by adding Tween 20 to the sample buffer (0.5% in the final concentration).
as §1

IC50 (saphenous artery rings): 250 nM | Stimulation (n-fold) heme-containing sGC, +0.1 μM DEA/NO ([1]; 0.01 μM Example 1): 24.1 n-fold | Stimulation (n-fold) heme-containing sGC, +10 μM ODQ ([1]; 0.01 μM Example 1): 7.0 n-fold | Stimulation (n-fold) heme-containing sGC, basal ([1]; 0.01 μM Example 1): 1.3 n-fold | Stimulation (n-fold) heme-containing sGC, +0.1 μM DEA/NO ([1]; 0.1 μM Example 1): 25.5 n-fold | Stimulation (n-fold) heme-containing sGC, +10 μM ODQ ([1]; 0.1 μM Example 1): 16.2 n-fold | Stimulation (n-fold) heme-containing sGC, basal ([1]; 0.1 μM Example 1): 1.9 n-fold | Stimulation (n-fold) heme-containing sGC, +0.1 μM DEA/NO ([1]; 1 μM Example 1): 33.4 n-fold | Stimulation (n-fold) heme-containing sGC, +10 μM ODQ ([1]; 1 μM Example 1): 60.6 n-fold | Stimulation (n-fold) heme-containing sGC, basal ([1]; 1 μM Example 1): 6.4 n-fold | Stimulation (n-fold) heme-containing sGC, +0.1 μM DEA/NO ([1]; 10 μM Example 1): 41.5 n-fold | Stimulation (n-fold) heme-containing sGC, +10 μM ODQ ([1]; 10 μM Example 1): 92.2 n-fold | Stimulation (n-fold) heme-containing sGC, basal ([1]; 10 μM Example 1): 11.0 n-fold | Synergy with the NO donor DEA/NO on sGC stimulation ([1]; combination of Example 1 and DEA/NO): no synergistic effect | Stimulation (n-fold) heme-free sGC, basal ([2]; 0.01 μM Example 1, heme-free by 0.5% Tween 20): 1.0 n-fold | Stimulation (n-fold) heme-free sGC, basal ([2]; 0.1 μM Example 1, heme-free by 0.5% Tween 20): 2.3 n-fold | Stimulation (n-fold) heme-free sGC, basal ([2]; 1 μM Example 1, heme-free by 0.5% Tween 20): 9.1 n-fold | Stimulation (n-fold) heme-free sGC, basal ([2]; 10 μM Example 1, heme-free by 0.5% Tween 20): 16.7 n-fold
SMILES: O=C(O)c1ccc(CCC(/C=C/c2cc(F)ccc2OCc2ccc(C(F)(F)F)cc2)CCc2ccc(C(=O)O)cc2)cc1 [Example 1, 4-[(4E)-3-[2-(4-Carboxyphenyl)ethyl]-5-(5-fluoro-2-{[4-(trifluoromethyl)benzyl]oxy}phenyl)pent-4-en-1-yl]benzoic acid]
